Experimental findings from EP2296651B1, “5-HYDROXYMETHYL-OXAZOLIDIN-2-ONE DERIVATIVES FOR TREATING BACTERIAL INTESTINAL DISEASES” (Actelion Pharmaceuticals Ltd., priority 2008, dated 2009) are described below.

Each structure is given as a SMILES string. In brackets after ≈: the same amount, converted by molar mass. A value given as a limit tells only on which side of the number the result lay.

In one test the test system is E. faecalis H 6897. Nature of the test: Broth microdilution MIC, aerobic Gram-positive bacteria. The conditions noted are these: Enterococcus faecalis, H6897, 48 h.
For test [1], the system named is Finegoldia magna A-1254 DSM 20470. Nature of the test: Agar dilution MIC, anaerobic strains. It is filed as cell-based.
The test system of test [2] is Bacteroides fragilis A-501 B 8039. Nature of the test: Agar dilution MIC, anaerobic strains. The conditions noted are these: A501B8039, 48 h. It is filed as cell-based.
In test [3] the test system is toxigenic C difficile strain 10465. The test can be described thus: C. difficile hamster model. It is filed as in vivo, Golden Syrian hamsters. The method, then:
Golden Syrian hamsters were given a single injection of clindamycin phosphate (10 mg/kg s.c.), and a day later animals were infected by gavage with 10^5 CFU of toxigenic C difficile strain 10465. A fulminant colitis results in the majority (∼95%) of animals and develops 1 to 2 days after the administration of C. difficile. Untreated, the colitis progresses rapidly and turns into severe colitis, hemorrhagic necrosis of the cecum and death. The compound of Example 1 was administered orally as a suspension at three dosage levels (10 mg/kg, 30 mg/kg and 100 mg/kg; n = 10 per group). Vancomycin (50 mg/kg) was used as a control. Animals were treated once daily for 5 days and afterwards maintain under observation for an additional 21 days.
The animals were observed three times daily for morbidity and presence or absence of diarrhoea. The final endpoint of the study was survival. Animals judged to be in a moribund state [extended period of weight loss progressing to an emaciated state, anorexia for 24-48 h, prolonged lethargy (more than 3 days), signs of paralysis, skin erosions or trauma, hunched posture, distended abdomen] were euthanized by a single injection of sodium pentobarbital.

The subject of test [4] is Bifidobacterium adolescentis A-1257 DSM 20083. The test can be described thus: Agar dilution MIC, anaerobic strains. The settings on record: DSM20083, 48 h. It is filed as cell-based.
Another test has as its system S. aureus S1 (LZD-R). Nature of the test: Broth microdilution MIC, aerobic Gram-positive bacteria. The conditions noted are these: Staphylococcus aureus, 48 h.
Test [5] has as its system Bacteroides fragilis A-502 T 7403. The test can be described thus: Agar dilution MIC, anaerobic strains. It is filed as cell-based. The conditions noted are these: A502T7403, 48 h. On the technique in general: In agar dilution, organisms are placed on agar that contains the substance at set levels.
The test system of another test is C. perfringens DSM 756. The test can be described thus: microbe, parasite or virus in culture. It is filed as cell-based. The conditions noted are these: Clostridium perfringens, DSM756, 48 h, read-out: MIC regarding C. perfringens DSM 756.
The test system of test [6] is Bacteroides ovatus A-991 ATCC 8483. Nature of the test: Agar dilution MIC, anaerobic strains. It is filed as cell-based. The settings on record: ATCC8483, 48 h.
In test [7] the test system is Clostridium difficile A- 1179 NC 13366. Nature of the test: Agar dilution MIC, anaerobic strains. It is filed as cell-based. The conditions noted are these: Clostridioides difficile, A1179NC13366, 48 h.
The next test deals with E. faecium H 7965. The test can be described thus: Broth microdilution MIC, aerobic Gram-positive bacteria. The settings on record: Enterococcus faecium, H7965, 48 h. (Broth dilution looks for growth in wells or tubes with falling amounts of substance.)
For test [8], the system named is Bacteroides fragilis A-217 B 6306. The test can be described thus: Agar dilution MIC, anaerobic strains. It is filed as cell-based. The conditions noted are these: A217B6306, 48 h.
The mark [9] stands for this setting: 100 mg/kg orally once daily for 5 days.

Regarding `O=C(O)c1cn(C2CC2)c2cc(N3CCC(O)(COc4ccc(N5C[C@H](CO)OC5=O)cc4F)CC3)c(F)cc2c1=O` [Example 1, 1-cyclopropyl-6-fluoro-7-{4-[2-fluoro-4-((R)-5-hydroxymethyl-2-oxo-oxazolidin-3-yl)-phenoxymethyl]-4-hydroxy-piperidin-1-yl}-4-oxo-1,4-dihydro-quinoline-3-carboxylic acid], the MIC amounted to 1 mg/L (≈ 1.71 µM) with E. faecalis H 6897; 0.25 mg/L (≈ 0.427 µM) in test [1] (DSM20470, 48 h, Finegoldia magna A-1254, DSM 20470); 4 mg/L (≈ 6.83 µM) in test [2]; 0.5 mg/L (≈ 0.854 µM) in [4]; 1 mg/L (≈ 1.71 µM) in the test with S. aureus S1 (LZD-R); 4 mg/L (≈ 6.83 µM) in [5]. Further, the MIC in the test on C. perfringens DSM 756 was no more than 0.03 mg/L; in [6], 16 mg/L (≈ 27.3 µM); in [7], no more than 0.06 mg/L; against E. faecium H 7965 it was 0.5 mg/L (≈ 0.854 µM); in test [8], 4 mg/L (≈ 6.83 µM). Further, the “less activity against Finegoldia magna A-1254 compared to the compound of Example 5 of WO 2005/058888” value in test [1] (versus R1) is 4 times. Moreover, the “survival during the 5 day treatment period” value in test [3] (10 mg/kg orally once daily for 5 days), in test [3] (30 mg/kg orally once daily for 5 days) and in test [3] (setting [9]) was “all” in each case. Also, in [3] (setting [9]), the “animals survived without relapse, relapse phase of 21 days after treatment” value worked out at 100%.
